What all share (test): DTP human tumour cell line panel, 48 h
The subject of assay [1] is HOP-92 NSCLC.
Assay [2] concerns SW-620 colon.
The test system of assay [3] is KM12 colon.
Assay [4] has as its system OVCAR-5 ovarian.
Assay [5] deals with HL-60(TB) leukemia.
Assay [6] relates to UO-31 renal.
In assay [7] the test system is IGROV1 ovarian.
Assay [8] deals with HCT-15 colon.
The subject of assay [9] is NCI/ADR-RES ovarian.

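Test compounds were applied to cells in 96-well plates for 48 hours at 5 doses. Abbreviation: GI50, concentration required for 50% inhibition of growth. TGI is the concentration that stops growth completely.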

The values below come from PubChem BioAssay (NCI).

As to `CC1=CC(N2C(=O)C(C)=CC2O)NC1=O` (centres undefined), the TGI in assay [1], in assay [2], in assay [3], in assay [4], in [5] and in [6] was over 100 µM throughout.

For `N/N=c1\c2ccccc2c2cc3c(cc12)/c(=N/N)c1ccccc13`, the TGI in [1], in [2], in assay [3], in assay [7], in [8] and in assay [4] was over 100 µM throughout. Besides, the TGI in [5] and in assay [6] was over 100 µM in each case.

As for `Cc1ccc(NC(=O)/C(Cl)=C(/Cl)C(=O)O)cc1`, the concentration for total growth inhibition (TGI) (usually the concentration giving total growth inhibition) in assay [1] is 32.6 µM; in assay [2] it was 29.9 µM; in assay [3], 34.6 µM; in assay [7], 61.1 µM; in assay [8], 28.9 µM; in assay [4] it was 37.6 µM. The TGI amounted to 4.36 µM in assay [5] and 31.8 µM in [6].

As for `Cc1ccccc1-n1c2nc(=O)n(C)c(=O)c-2nc2ccccc21`, the TGI in [2] turned out to be 28.1 µM; in assay [3], 33.5 µM; in assay [7], 37.9 µM; in assay [8], 24.3 µM; in assay [4], 34.9 µM; in assay [5] it was 35.8 µM. This compound also had a TGI in [6] of 66.1 µM.

For the compound `COc1cc([N+](=O)[O-])c(OC)cc1-c1nc2sc(Cl)cn2c1/C=N/NC1=NCCN1`, the GI50 (usually the concentration that inhibits growth by half) in assay [3] was 0.833 µM; in assay [9] it was over 100 µM; in assay [8], 1.64 µM; in [4], 0.878 µM; in [6], 0.966 µM. Moreover, the TGI in assay [3] was 2.49 µM; in [9], over 100 µM; in assay [8], 2.99 µM; in assay [4], 2.3 µM.

Consider `NCCNCc1c2ccccc2c(CNCCN)c2ccccc12`, for which the TGI is 45.9 µM in [1]; over 100 µM in assay [2]; 62.6 µM in [3]; over 100 µM in assay [7]; over 100 µM in [8]; 97.5 µM in assay [4]. Also, the TGI in assay [5] was 58.6 µM; in assay [6] it was over 100 µM.

Regarding `COc1ccc2nc3cc(Cl)ccc3c(Sc3ccc([N+](=O)[O-])cc3)c2c1`, the GI50 in assay [1], in [2], in assay [3], in assay [7], in [8] and in assay [4] was over 100 µM in each case. Also, the GI50 in assay [6] is over 100 µM. The TGI in assay [1], in [2], in assay [3], in assay [7], in assay [8] and in assay [4] was over 100 µM in each case. Further, the TGI in [5] and in assay [6] was over 100 µM throughout.

As for `CC(=O)NC1C(OCc2ccccc2)OC(COC(=O)CCCCCCCCCCNc2ccc([N+](=O)[O-])c3[nH]c4ccccc4c(=O)c23)C(O)C1OC(C)C(=O)NC(C)C(=O)NC(CCC(N)=O)C(=O)OCc1ccccc1` (centres undefined), the TGI in [2], in [3], in [7], in assay [8], in assay [4] and in assay [5] was over 100 µM throughout. Besides, the TGI in assay [6] was over 100 µM.

As for `COC(=O)C1=C(C(=O)OC)C2(C)Nc3ccccc3C2=C(c2ccccc2)C1` (centres undefined), the TGI in assay [1] was determined as 38.9 µM; in assay [2] it was 69.6 µM; in assay [3], 30.3 µM; in [7], 52.9 µM; in assay [8], 51.8 µM; in [4], 62.7 µM. The results for the TGI in [5] and in [6] were 41.5 µM and 38.2 µM, respectively.

Turning to `c1ccc2c(c1)N=C(c1cccc3ccccc13)CC(c1ccc3c(c1)OCO3)S2` (centres undefined), the TGI in assay [2], in assay [3], in assay [7], in assay [4], in [5] and in assay [6] was over 100 µM throughout.

Regarding `CC(C)NC(=O)CCN(C(=O)O)S(=O)(=O)c1ccc(NC(=O)c2ccccc2)cc1`, the TGI in [1] was over 100 µM; in [2], over 52.4 µM; in [3] it was over 100 µM; in [7] it was over 100 µM; in [8], over 59.8 µM; in assay [4] it was over 100 µM. Further, the TGI in [5] is over 64 µM; in assay [6] it was over 100 µM.

With `CN1CCN(C)C12C=CC=CC21CC1`, the total growth inhibition concentration (TGI) in assay [1], in assay [2], in [3], in assay [7], in [8] and in assay [4] was over 100 µM in each case. In addition, the TGI in assay [5] and in assay [6] was over 100 µM each time.

As for `CCNC(=O)O/N=C1\CCC2[C@@H]3CC=C4C[C@@H](OC5CCCCO5)CC[C@]4(C)C3CC[C@]12C` (some centres undefined), the TGI in assay [1] is 7.34 µM; in assay [2], 6.04 µM; in [3], 17 µM; in [7], over 100 µM; in assay [4] it was 13 µM; in assay [6], 2.85 µM.

`COc1ccccc1NC(=O)c1nc2ccc([N+](=O)[O-])cc2nc1C`: the TGI in assay [1], in [2], in [3], in assay [7], in assay [8] and in assay [4] was over 100 µM each time. Besides, in assay [6], the TGI is over 100 µM.

Regarding `Cc1ccc(S(=O)OCC23CC4CC(CC(C4)C2)C3)cc1` (centres undefined), the TGI in [1], in assay [2], in assay [3], in assay [7], in assay [8] and in [4] was over 100 µM in each case. The total growth inhibition concentration (TGI) in assay [5] and in assay [6] was over 100 µM in each case.

For the compound `OCc1c[te]c(-c2ccccc2)c1`, the TGI is over 100 µM in assay [2]; over 100 µM in [3]; over 100 µM in assay [7]; over 100 µM in assay [8]; over 100 µM in [4]; 45.1 µM in assay [5]. In assay [6], the TGI came to 79.4 µM.

With `CC#CC1C2CCCC1(CSc1ccccc1)NC(=O)O2` (centres undefined), the TGI in [1], in assay [2], in assay [3], in assay [7], in assay [8] and in [4] was over 100 µM in each case. In addition, the TGI in assay [5] and in [6] was over 100 µM each time.

For `O=C(COC(=O)c1cccc2c(=O)c3ccccc3[nH]c12)Nc1ccc(C(=O)O)cc1`, the TGI in assay [1], in assay [2], in [3], in assay [7], in assay [5] and in assay [6] was over 100 µM throughout.

As to `Cc1cc(C)nc(NS(=O)(=O)c2ccc(Nc3c4ccc(Cl)cc4nc4c(C(=O)NCCN(C)C)cccc34)cc2)n1`, the TGI in assay [1], in assay [2], in [3], in assay [7], in [8] and in [4] was over 100 µM throughout. For the same compound, the TGI in assay [5] and in assay [6] was over 100 µM each time.

On to `NNC(=O)N/N=C1\C(=O)N(c2ccc(Cl)c(Cl)c2)C(=O)C(=O)C1c1nc2ccccc2s1` (centres undefined), for which the TGI in assay [1], in [2], in assay [3], in [7], in assay [8] and in assay [5] was over 100 µM each time. In assay [6], this compound gave a TGI of over 100 µM.

Regarding `O=C(/C(=C\c1ccc(Cl)cc1)c1ccccc1)c1ccccc1`, the TGI in [1] is over 100 µM; in assay [2], over 100 µM; in [3], 74.3 µM; in [7], over 100 µM; in assay [8] it was over 100 µM; in assay [4], over 100 µM. Besides, the TGI in [5] is 36.3 µM; in [6], over 100 µM.

For `CC(=O)c1cc(C(=O)c2ccc3c(c2)Sc2ccccc2N3)c2cc(C)ccn12`, the GI50 in [1] is over 100 µM; in assay [2] it was 0.0559 µM; in [3] it was 0.0425 µM; in [9] it was 0.0369 µM; in assay [7], 0.122 µM; in assay [8], 0.0704 µM. In addition, in assay [6], the GI50 was 0.0515 µM. The TGI in [1], in [2], in [3], in assay [9], in assay [7] and in [8] was over 100 µM in each case. The same compound returned a TGI in assay [6] of over 100 µM.

`COC(=O)C(Cc1nc2ccccc2nc1C)/C(=N\NC(N)=O)C(=O)Nc1cccc([N+](=O)[O-])c1` (centres undefined): the TGI in assay [2], in assay [3], in assay [7], in assay [8], in assay [4] and in [5] was over 100 µM throughout. The compound also displayed a TGI in assay [6] of over 100 µM.
